Here are results for four molecules from patent US20120095036A1, “NOVEL SUBSTITUTED INDAZOLE AND AZA-INDAZOLE DERIVATIVES AS GAMMA SECRETASE MODULATORS” (priority 2009, published 2012).

The test system of series [1] is Aβ42. The experiment in a line: Method 2: Aβ42 Alphalisa on supernatant of SKNBE2 cells carrying APP 695 wild type. The note with it: Homo sapiens, SKNBE2 cells APP 695 wild type, overnight. Format: cell-based. The procedure, abridged: (§1)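 SKNBE2 cells expressing wild-type APP695 (10^4/well) were incubated overnight at 37 °C with compound at several concentrations. Secreted Aβ42 (C-terminal/N-terminal antibody pair) and Aβtotal (N-terminal/4G8 pair) were measured by AlphaLISA in the supernatant. IC50 values came from 4-parameter fits of percent of untreated control.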

The subject of series [2] is Aβtotal. The experiment in a line: Method 1: Aβtotal sandwich ELISA on media of SKNBE2 cells carrying APP 695 wild type. Type of series: cell-based. Conditions: Homo sapiens, SKNBE2 cells APP 695 wild type, 18 hours. The procedure, abridged:
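SKNBE2 cells expressing wild-type APP695 treated with compound for 18 h in Ultraculture; secreted Aβtotal measured by 6E10-capture/biotinylated 4G8 sandwich ELISA with fluorogenic peroxidase read-out. IC50 from 4-parameter fit, top/bottom fixed at 100/0, Hill slope 1; toxicity checked by WST-1.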

In series [3] the test system is Aβ42. The experiment in a line: Method 1: Aβ42 sandwich ELISA on media of SKNBE2 cells carrying APP 695 wild type (γ-secretase-modulating activity). Conditions: Homo sapiens, SKNBE2 cells APP 695 wild type, 18 hours. Type of series: cell-based. The gist of the method: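 SKNBE2 cells expressing wild-type APP695 exposed to compounds for 18 h in Ultraculture with 1% glutamine. Secreted Aβ42 in media quantified by sandwich ELISA (C-terminal capture, biotinylated 3D6 detection, TMB, 450 nm). IC50 from 4-parameter fit, top/bottom fixed 100/0, Hill slope fixed 1; toxicity checked by WST-1.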

The test system of series [4] is Notch-processing activity of the γ-secretase-complex. The experiment in a line: Notch cell-free assay (NICD production from recombinant Notch substrate N99). Type of series: biochemical, mouse. Conditions: 1 nM of a test compound, 37° C. for 6 to 22 h, western blotting. On the procedure: The Notch transmembrane domain is cleaved by gamma secretase to release Notch Intracellular C-terminal Domain (NICD).
To monitor the effect of compounds on NICD production, a recombinant Notch substrate (N99) was prepared. The Notch substrate, comprised of mouse Notch fragment (V1711-E1809), an N-terminal methionine and a C-terminal FLAG sequence ([…]), was expressed in E. coli and purified on a column containing an anti-FLAG M2 affinity matrix.
A typical Notch cell-free assay consisted of 0.3-0.5 nM Notch substrate, an enriched preparation of gamma secretase and 1 nM of a test compound (compound 45 of the present invention). Controls included a gamma secretase inhibitor (GSI), such as (2S)-N-[2-(3,5-difluorophenyl)acetyl]-L-alanyl-2-phenyl-glycine 1,1-dimethylethyl ester (DAPT) or (2S)-2-hydroxy-3-methyl-N-[(1S)-1-methyl-2-oxo-2-[[(1S)-2,3,4,5-tetrahydro-3-methyl-2-oxo-1H-3-benzazepin-1-yl]amino]ethyl]-butanamide (Semagacestat), and DMSO, the final concentration of DMSO being 1%. Recombinant Notch substrate was pre-treated with 17 μM DTT (1,4-dithiothreitol) and 0.02% SDS (Sodium Dodecyl Sulfate) and heated at 65° C. for 10 min. The mixture of substrate, gamma secretase and compound/DMSO was incubated at 37° C. for 6 to 22 hours (h). Six-hour incubation was sufficient to produce the maximal amount of NICD and the cleaved product remained stable for an additional 16 h. Reaction products were processed for SDS PAGE (Sodium Dodecyl Sulfate—Poly Acrylamide Gel Electrophoresis) and western blotting. Blots were probed with an anti-Flag M2 antibody, followed by LI-COR infrared secondary antibody, and analyzed with the Odyssey Infrared Imaging System (LI-COR® Biosciences).

The test system of series [5] is Aβtotal. The experiment in a line: Method 2: Aβtotal Alphalisa on supernatant of SKNBE2 cells carrying APP 695 wild type. Type of series: cell-based. Conditions: Homo sapiens, SKNBE2 cells APP 695 wild type, overnight. The gist of the method: as §1
Series [6] relates to Aβ42. The experiment in a line: In vivo efficacy: Aβ42 lowering in brain (ELISA). Also noted: species or system mouse. The note with it: brain soluble fraction; typical protocol: single oral dose, overnight fasted animals, after four hours. From the text:
(§2) To determine whether acute administration of an Aβ42 lowering agent would reduce Aβ42 levels in vivo, non-transgenic rodents, e.g. mice or rats were used. Alternatively, two to three month old Tg2576 mice expressing APP695 containing the “Swedish” variant can be used or a transgenic mouse model developed by Dr. Fred Van Leuven (K.U.Leuven, Belgium) and co-workers, with neuron-specific expression of a clinical mutant of the human amyloid precursor protein [V717I] (Moechars et al., 1999 J. Biol. Chem. 274, 6483). Young transgenic mice have high levels of Aβ in the brain but no detectable Aβ deposition. At approximately 6-8 months of age, the transgenic mice start to display spontaneous, progressive accumulation of β-amyloid (A13) in the brain, eventually resulting in amyloid plaques within the subiculum, hippocampus and cortex. Animals treated with the Aβ42 lowering agent were examined and compared to those untreated or treated with vehicle and brain levels of soluble Aβ42 and total Aβ would be quantitated by standard techniques, for example, using ELISA. Treatment periods varied from hours to days and were adjusted based on the results of the Aβ42 lowering once a time course of onset of effect could be established.
(§3) A typical protocol for measuring Aβ42 lowering in vivo is shown but it is only one of many variations that could be used to optimize the levels of detectable Aβ. For example, Aβ42 lowering compounds were formulated in 20% of Captisol® (a sulfobutyl ether of β-cyclodextrin) in water or 20% hydroxypropyl β cyclodextrin. The Aβ42 lowering agents were administered as a single oral dose or by any acceptable route of administration to overnight fasted animals. After four hours, the animals were sacrificed and Aβ42 levels were analysed.
(§4) Blood was collected by decapitation and exsanguinations in EDTA-treated collection tubes. Blood was centrifuged at 1900 g for 10 minutes (min) at 4° C. and the plasma recovered and flash frozen for later analysis. The brain was removed from the cranium and hindbrain. The cerebellum was removed and the left and right hemisphere were separated. The left hemisphere was stored at −18° C. for quantitative analysis of test compound levels. The right hemisphere was rinsed with phosphate-buffered saline (PBS) buffer and immediately frozen on dry ice and stored at −80° C. until homogenization for biochemical assays.
(§5) Mouse brains were resuspended in 10 volumes of 0.4% DEA (diethylamine)/50 mM NaCl pH 10 (for non-transgenic animals) or 0.1% 3-[(3-cholamidopropyl)-dimethyl-ammonio]-1-propanesulfonate (CHAPS) in tris buffered saline (TBS) (for transgenic animals) containing protease inhibitors (Roche-11873580001 or 04693159001) per gram of tissue, e.g. for 0.158 g brain, add 1.58 ml of 0.4% DEA. All samples were sonicated for 30 sec on ice at 20% power output (pulse mode). Homogenates were centrifuged at 221.300×g for 50 min. The resulting high speed supernatants were then transferred to fresh tubes and were optionally further purified before the next step. A portion of the supernatant was neutralized with 10% 0.5 M Tris-HCl and this was used to quantify Aβtotal.
(§6) The obtained supernatants were purified with Water Oasis HLB reverse phase columns (Waters Corp., Milford, Mass.) to remove non-specific immunoreactive material from the brain lysates prior subsequent Aβ detection. Using a vacuum manifold, all solutions were passed through the columns at a rate of approximately 1 ml/min, so the vacuum pressure was adjusted accordingly throughout the procedure. Columns were preconditioned with 1 ml of 100% MeOH, before equilibration with 1 ml of H2O, Non-neutralized brain lysates were loaded onto the columns. The loaded samples were then washed twice with the first wash performed with 1 ml of 5% MeOH, and the second wash with 1 ml of 30% MeOH. Finally, the Aβ was eluted from the columns and into 100×30 mm glass tubes, with a solution of 90% MeOH with 2% NH4OH. […]

Series [7] deals with Aβtotal. Briefly: In vivo efficacy: Aβtotal in brain (ELISA). Set-up: species or system mouse. The note with it: brain soluble fraction; typical protocol: single oral dose, overnight fasted animals, after four hours.
Description: as §2, §3, §4, §5, §6

SMILES strings stand for the structures. pIC50: −log10 of the molar value.

With `COc1ccc(C)c(-n2nc3c(Nc4ccc(-c5cnc(C)o5)nc4)cccc3c2C)c1` [Compound 45, 2-(5-methoxy-2-methylphenyl)-3-methyl-N-[6-(2-methyl-5-oxazolyl)-3-pyridinyl]-2H-indazol-7-amine], the pIC50 with Aβ42 [1] is 7.74; in the series with Aβtotal [2], less than 5.52; in the series with Aβ42 [3] it was 7.64; in the series with Aβtotal [5], 5.17. The “effect on the Notch-processing activity of the γ-secretase-complex (production of NICD)” value (shortened to “effect on the Notch-processing activity”) in series [4] is recorded as “did not show an effect”.

The molecule `COc1nc(Nc2cccc3cn(CC(F)(F)F)nc23)ccc1-n1cnc(C)c1` [Compound 54, N-[6-methoxy-5-(4-methyl-1H-imidazol-1-yl)-2-pyridinyl]-2-(2,2,2-trifluoroethyl)-2H-indazol-7-amine] yielded a melting point of 206 °C. Also, the pIC50 in the series on Aβ42 [1] was 7.18. In the series with Aβ42 [6], the “Aβ42 (% Ctrl) _Mean” value is 72 % Ctrl. Further, in the series on Aβtotal [7], the “Aβtotal (% Ctrl) _Mean” value was determined as 109 % Ctrl. Moreover, the pIC50 with Aβtotal [5] is less than 5.00.

On to `C[C@H](NC(=O)Cc1cc(F)cc(F)c1)C(=O)NC(C(=O)OC(C)(C)C)c1ccccc1` (stereo partly drawn) [DAPT, (2S)-N-[2-(3,5-difluorophenyl)acetyl]-L-alanyl-2-phenyl-glycine 1,1-dimethylethyl ester], for which, in series [4], the “effect on the Notch-processing activity” value was “blocked”.

As to `CC(C)[C@H](O)C(=O)N[C@@H](C)C(=O)N[C@@H]1C(=O)N(C)CCc2ccccc21` [Semagacestat, (2S)-2-hydroxy-3-methyl-N-[(1S)-1-methyl-2-oxo-2-[[(1S)-2,3,4,5-tetrahydro-3-methyl-2-oxo-1H-3-benzazepin-1-yl]amino]ethyl]-butanamide], the “effect on the Notch-processing activity” value in series [4] was “blocked”.
